Patent US20170190671A1, “BIS(ARYL)CATECHOL DERIVATIVES AS HERBICIDES” (E I DU PONT DE NEMOURS AND COMPANY, priority 2014, published 2017)

Legend:
Type in all cases: in vivo
[1] = test system: barnyardgrass (Echinochloa crus-galli); experiment: Test B flooded paddy; conditions: Echinochloa crus-galli, 336 h; 250 g ai/ha, Flood, 13 to 15 days, scale 0 (no effect) to 100 (complete control); read-out: Plant response rating, Barnyardgrass
Method in brief: (§1)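 Ratings were visual and made relative to untreated controls after 13 to 15 greenhouse days.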

[2] = test system: ducksalad (Heteranthera limosa); experiment: Test B flooded paddy; conditions: Heteranthera limosa, 336 h; 250 g ai/ha, Flood, 13 to 15 days, scale 0 (no effect) to 100 (complete control); read-out: Plant response rating, Ducksalad
Method in brief: as §1

rice (Oryza sativa) = experiment: Test B flooded paddy; conditions: Oryza sativa, 336 h; 250 g ai/ha, Flood, 13 to 15 days, scale 0 (no effect) to 100 (complete control); read-out: Plant response rating, Rice
Method in brief: as §1

[3] = test system: sedge, umbrella (small-flower umbrella sedge, Cyperus difformis); experiment: Test B flooded paddy; conditions: Cyperus difformis, 336 h; 250 g ai/ha, Flood, 13 to 15 days, scale 0 (no effect) to 100 (complete control); read-out: Plant response rating, Sedge, Umbrella
Method in brief: as §1

[4] = test system: barnyardgrass (Echinochloa crus-galli); experiment: Test A preemergence; conditions: Echinochloa crus-galli, pre-emergence, 240 h, 0 to 100 scale, read-out: Plant response rating, Barnyardgrass; for pest or weed control at 125 g/ha: 125 g ai/ha; for pest or weed control at 500 g/ha: 500 g ai/ha
Method in brief: (§2)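 Injury scores run from 0, no effect, to 100, complete control, judged by eye against untreated plants roughly 10 days after treatment. Chemicals carried a surfactant in a non-phytotoxic solvent and went onto loam–sand soil preemergence or onto one- to two-leaf seedlings postemergence.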

[5] = test system: giant foxtail (Setaria faberii); experiment: Test A preemergence; conditions: Setaria faberi, pre-emergence, 240 h; for pest or weed control at 125 g/ha: 125 g ai/ha; for pest or weed control at 500 g/ha: 500 g ai/ha
Method in brief: as §2

[6] = test system: pigweed (Amaranthus retroflexus); experiment: Test A preemergence; conditions: Amaranthus retroflexus, pre-emergence, 240 h; for pest or weed control at 125 g/ha: 125 g ai/ha; for pest or weed control at 500 g/ha: 500 g ai/ha
Method in brief: as §2

[7] = test system: barnyardgrass (Echinochloa crus-galli); experiment: Test A postemergence; conditions: Echinochloa crus-galli, post-emergence, 240 h, 0 to 100 scale, read-out: Plant response rating, Barnyardgrass; for pest or weed control at 125 g/ha: 125 g ai/ha; for pest or weed control at 500 g/ha: 500 g ai/ha
Method in brief: as §2

corn (Zea mays) = experiment: Test A postemergence; conditions: Zea mays, post-emergence, 240 h, 0 to 100 scale; for Corn plant response rating (crop injury, 0 = no effect, 100 = complete kill) at 125 g/ha: 125 g ai/ha; for Corn plant response rating (crop injury, 0 = no effect, 100 = complete kill) at 500 g/ha: 500 g ai/ha
Method in brief: as §2

[8] = test system: giant foxtail (Setaria faberii); experiment: Test A postemergence; conditions: Setaria faberi, post-emergence, 240 h, 0 to 100 scale, read-out: Plant response rating, Foxtail, Giant; for pest or weed control at 125 g/ha: 125 g ai/ha; for pest or weed control at 500 g/ha: 500 g ai/ha
Method in brief: as §2

[9] = test system: pigweed (Amaranthus retroflexus); experiment: Test A postemergence; conditions: Amaranthus retroflexus, post-emergence, 240 h, 0 to 100 scale, read-out: Plant response rating, Pigweed; for pest or weed control at 125 g/ha: 125 g ai/ha; for pest or weed control at 500 g/ha: 500 g ai/ha
Method in brief: as §2

[10] = test system: wheat (Triticum aestivum); experiment: Test A postemergence; conditions: Triticum aestivum, post-emergence, 240 h, 0 to 100 scale, read-out: Plant response rating, Wheat; for plant injury at 125 g/ha: 125 g ai/ha; for plant injury at 500 g/ha: 500 g ai/ha
Method in brief: as §2

[11] = test system: Italian ryegrass (Lolium multiflorum); experiment: Test C preemergence; conditions: Lolium multiflorum, pre-emergence, 336 h, scale 0 to 100, read-out: Plant response rating, Ryegrass, Italian; for pest or weed control at 31 g/ha: 31 g ai/ha; for pest or weed control at 62 g/ha: 62 g ai/ha; for pest or weed control at 125 g/ha: 125 g ai/ha; for pest or weed control at 16 g/ha: Preemergence, 16 g ai/ha
Text: (§3) Seeds of plant species selected from blackgrass (Alopecurus myosuroides), Italian ryegrass (Lolium multiflorum), winter wheat (Triticum aestivum), galium (catchweed bedstraw, Galium aparine), corn (Zea mays), large (Lg) crabgrass (Digitaria sanguinalis), giant foxtail (Setaria faberii), johnsongrass (Sorghum halepense), lambsquarters (Chenopodium album), morningglory (Ipomoea coccinea), yellow nutsedge (Cyperus esculentus), pigweed (Amaranthus retroflexus), ragweed (common ragweed, Ambrosia elatior), soybean (Glycine max), barnyardgrass (Echinochloa crus-galli), oilseed rape (Brassica napus), waterhemp (common waterhemp, Amaranthus rudis), and velvetleaf (Abutilon theophrasti) were planted into a blend of loam soil and sand and treated preemergence with test chemicals formulated in a non-phytotoxic solvent mixture which included a surfactant.
(§4) At the same time, plants selected from these crop and weed species and also chickweed (common chickweed, Stellaria media), kochia (Kochia scoparia), and wild oat (Avena fatua), were planted in pots containing Redi-Earth® planting medium (Scotts Company, 14111 Scottslawn Road, Marysville, Ohio 43041) comprising spaghnum peat moss, vermiculite, wetting agent and starter nutrients and treated with postemergence applications of test chemicals formulated in the same manner. Plants ranged in height from 2 to 18 cm (1- to 4-leaf stage) for postemergence treatments. Treated plants and controls were maintained in a greenhouse for 13 to 15 days, after which time all species were compared to controls and visually evaluated. Plant response ratings, summarized in Table C, are based on a scale of 0 to 100 where 0 is no effect and 100 is complete control. A dash (-) response means no test result.

[12] = test system: waterhemp (common waterhemp, Amaranthus rudis); experiment: Test C preemergence; conditions: Amaranthus tuberculatus, pre-emergence, scale 0 to 100, read-out: Plant response rating, Waterhemp; for pest or weed control at 31 g/ha: 31 g ai/ha; for pest or weed control at 62 g/ha: 62 g ai/ha; for pest or weed control at 125 g/ha: 125 g ai/ha; for pest or weed control at 16 g/ha: Preemergence, 16 g ai/ha
Text: as §3, §4

[13] = 0 to 100 scale, read-out: Plant response rating, Foxtail, Giant
[14] = 0 to 100 scale, read-out: Plant response rating, Pigweed
[15] = 0 to 100 scale (0 no effect, 100 complete control), read-out: Foxtail, Giant plant response rating
[16] = 0 to 100 scale (0 no effect, 100 complete control), read-out: Pigweed plant response rating

`N#Cc1cccc(Oc2ncc(Cl)cn2)c1Oc1ncc(Cl)cn1` [Compound 3, 2,3-bis[(5-chloro-2-pyrimidinyl)oxy]benzonitrile] gave a pest or weed control at 250 g/ha [1] of 20%, a pest or weed control at 250 g/ha [2] of 90% and a plant injury at 250 g/ha (rice (Oryza sativa)) of 35%. The pest or weed control at 250 g/ha [3] was 90%, the pest or weed control at 125 g/ha [4] was 100% and the pest or weed control at 500 g/ha [4] was 100%. For the same compound, the pest or weed control at 125 g/ha [5, 13] was 100%, the pest or weed control at 500 g/ha [5, 13] was 100% and the pest or weed control at 125 g/ha [6, 14] was 100%. It also gave a pest or weed control at 500 g/ha [6, 14] of 100%, a pest or weed control at 125 g/ha [7] of 90% and a pest or weed control at 500 g/ha [7] of 90%. The Corn plant response rating (crop injury, 0 = no effect, 100 = complete kill) at 125 g/ha (corn (Zea mays)) was 50%, the Corn plant response rating (crop injury, 0 = no effect, 100 = complete kill) at 500 g/ha (corn (Zea mays)) was 80% and the pest or weed control at 125 g/ha [8] was 90%. It also gave a pest or weed control at 500 g/ha [8] of 90%, a pest or weed control at 125 g/ha [9] of 100% and a pest or weed control at 500 g/ha [9] of 100%. For the same compound, the plant injury at 125 g/ha [10] was 60%, the plant injury at 500 g/ha [10] was 80% and the pest or weed control at 31 g/ha ([11]; preemergence) was 5%. It also gave a pest or weed control at 62 g/ha ([11]; preemergence) of 35%, a pest or weed control at 125 g/ha ([11]; preemergence) of 90% and a pest or weed control at 250 g/ha ([11]; 250 g ai/ha, preemergence) of 90%. The pest or weed control at 31 g/ha ([12]; preemergence) was 100%, the pest or weed control at 62 g/ha ([12]; preemergence) was 100% and the pest or weed control at 125 g/ha ([12]; preemergence) was 100%. For the same compound, the pest or weed control at 250 g/ha ([12]; 250 g ai/ha, preemergence) was 100%.

For `Clc1cnc(Oc2cccc(Br)c2Oc2ncc(Cl)cn2)nc1` [Compound 19, 2,2′-[[3-bromo-1,2-phenylene]bis(oxy)]bis[5-chloropyrimidine]], the pest or weed control at 250 g/ha [1] was 15%, the pest or weed control at 250 g/ha [2] was 95% and the plant injury at 250 g/ha (rice (Oryza sativa)) was 25%. For the same compound, the pest or weed control at 250 g/ha [3] was 85%, the pest or weed control at 125 g/ha [4] was 80% and the pest or weed control at 500 g/ha [4] was 90%. For the same compound, the pest or weed control at 125 g/ha [5, 15] was 100%, the pest or weed control at 500 g/ha [5, 13] was 100% and the pest or weed control at 125 g/ha [6, 16] was 100%. For the same compound, the pest or weed control at 500 g/ha [6, 14] was 100%, the pest or weed control at 125 g/ha [7] was 70% and the pest or weed control at 500 g/ha [7] was 100%. It also gave a Corn plant response rating (crop injury, 0 = no effect, 100 = complete kill) at 125 g/ha (corn (Zea mays)) of 50%, a Corn plant response rating (crop injury, 0 = no effect, 100 = complete kill) at 500 g/ha (corn (Zea mays)) of 60% and a pest or weed control at 125 g/ha [8] of 80%. It also gave a pest or weed control at 500 g/ha [8] of 90%, a pest or weed control at 125 g/ha [9] of 100% and a pest or weed control at 500 g/ha [9] of 100%. It also gave a plant injury at 125 g/ha [10] of 50%, a plant injury at 500 g/ha [10] of 60% and a pest or weed control at 31 g/ha ([11]; preemergence) of 50%. For the same compound, the pest or weed control at 62 g/ha ([11]; preemergence) was 70%, the pest or weed control at 125 g/ha ([11]; preemergence) was 90% and the pest or weed control at 16 g/ha [11] was 5%. It also gave a pest or weed control at 31 g/ha ([12]; preemergence) of 100%, a pest or weed control at 62 g/ha ([12]; preemergence) of 100% and a pest or weed control at 125 g/ha ([12]; preemergence) of 100%. For the same compound, the pest or weed control at 16 g/ha [12] was 100%.

In the case of `Fc1cccc(Oc2ncc(Cl)cn2)c1Oc1ncc(Cl)cn1` [Compound 21, 2,2′-[[3-fluoro-1,2-phenylene]bis(oxy)]bis[5-chloropyrimidine]], the pest or weed control at 250 g/ha [1] is reported as 35%, the pest or weed control at 250 g/ha [2] is reported as 100% and the plant injury at 250 g/ha (rice (Oryza sativa)) is reported as 40%. The pest or weed control at 250 g/ha [3] was 90%, the pest or weed control at 125 g/ha [4] was 90% and the pest or weed control at 500 g/ha [4] was 100%. For the same compound, the pest or weed control at 125 g/ha [5, 15] was 100%, the pest or weed control at 500 g/ha [5, 13] was 100% and the pest or weed control at 125 g/ha [6, 16] was 100%. For the same compound, the pest or weed control at 500 g/ha [6, 14] was 100%, the pest or weed control at 125 g/ha [7] was 80% and the pest or weed control at 500 g/ha [7] was 90%. It also gave a Corn plant response rating (crop injury, 0 = no effect, 100 = complete kill) at 125 g/ha (corn (Zea mays)) of 50%, a Corn plant response rating (crop injury, 0 = no effect, 100 = complete kill) at 500 g/ha (corn (Zea mays)) of 60% and a pest or weed control at 125 g/ha [8] of 90%. For the same compound, the pest or weed control at 500 g/ha [8] was 90%, the pest or weed control at 125 g/ha [9] was 100% and the pest or weed control at 500 g/ha [9] was 100%. It also gave a plant injury at 125 g/ha [10] of 50%, a plant injury at 500 g/ha [10] of 60% and a pest or weed control at 31 g/ha ([11]; preemergence) of 50%. For the same compound, the pest or weed control at 62 g/ha ([11]; preemergence) was 85%, the pest or weed control at 125 g/ha ([11]; preemergence) was 90% and the pest or weed control at 16 g/ha [11] was 10%. It also gave a pest or weed control at 31 g/ha ([12]; preemergence) of 100%, a pest or weed control at 62 g/ha ([12]; preemergence) of 100% and a pest or weed control at 125 g/ha ([12]; preemergence) of 100%. For the same compound, the pest or weed control at 16 g/ha [12] was 100%.
